The text below walks through data of patent publication US7122184B2, “Specific monoclonal antibody against terbinafine” (Novartis AG, priority 2000, dated 2006).

For series [1], the system named is purified antibodies from hybridoma cell line LAM-JA. Put plainly: Competitive ELISA for terbinafine derivatives (crossreactivity). Format: binding, mice. To be noted: for Inhibition (%) at terbinafine concentration (μg/ml) 0.0001: competitor 0.0001 μg/ml; for Inhibition (%) at terbinafine concentration (μg/ml) 0.0001 / Inhibition (%) at terbinafine concentration (μg/ml) 0.001 / Inhibition (%) at terbinafine concentration (μg/ml) 0.01 / Inhibition (%) at terbinafine concentration (μg/ml) 0.1 / Inhibition (%) at terbinafine concentration (μg/ml) 1 / Inhibition (%) at terbinafine concentration (μg/ml) 10: mAb LAM-JA binding to terbinafine-BSA conjugate; for Inhibition (%) at terbinafine concentration (μg/ml) 0.001: competitor 0.001 μg/ml; for Inhibition (%) at terbinafine concentration (μg/ml) 0.01: competitor 0.01 μg/ml; for Inhibition (%) at terbinafine concentration (μg/ml) 0.1: competitor 0.1 μg/ml; for Inhibition (%) at terbinafine concentration (μg/ml) 1: competitor 1 μg/ml; for Inhibition (%) at terbinafine concentration (μg/ml) 10: competitor 10 μg/ml; for % crossreactivity: relative to terbinafine at B/B0=50%, calculated from FIG. 1, mAb LAM-JA. The text has this:
The antibodies of the invention are screened and characterized in conventional manner, e.g. according to their ability to distinguish between terbinafine and its metabolites and derivatives, e.g. by determination of relative cross-reactivity. […] (1994), Stockton Press, p. 89). Relative crossreactivity is the concentration of analyte giving 50% at the point where the reduction in signal corresponds to 50% of the signal achieved in the absence of analyte (ratio B/B0 of 50%), as a percentage of the analyte concentration giving the same fall in signal.
Microtiter plates are coated with 5 μg/ml terbinafine hydrochloride—protein (BSA) conjugate in carbonate buffer overnight at 4°, then saturated with blocking reagent [SuperBloc® buffer (Pierce)] and washed 3× with 0.05% (v/v) PBS-TWEEN® (polyoxyethylene 20 sorbitan monoleate). The hybridoma supernatants to be screened are diluted in a 1% (w/v) solution of BSA in PBS-TWEEN® (polyoxyethylene 20 sorbitan monoleate), and incubated for 2 hours at 37°. Level of bound antibody is measured by anti-mouse IgG rabbit immunoglobulin coupled to horseradish peroxidase with OPD as the substrate. After incubation for one hour at room temperature the enzymatic substrate is hydrolyzed and absorbance at 490/650 nm is measured after 15 minutes incubation in the dark.
The direct ELISA according to Example 3 above is converted to a competitive ELISA wherein a competitor is added to the monoclonal antibody solution, and binding of the mAB to the conjugate in the presence and absence of the competitor is measured. Standard curves to determine cross-reactivity of a selected antibody to terbinafine and its derivatives are prepared using solutions containing known concentrations of terbinafine and appropriate derivatives (e.g. 10 μ/ml to 0.0001 μg/ml in buffer).
The result of such competitive assay for the purified antibodies from hybridoma cell line LAM-JA (where the immunogen used was carboxy-terbinafine coupled to OVA), is as follows:
The measurement of antibody response to substances other than the analyte is the crossreactivity. It may be “expressed as the point where the reduction in signal corresponds to 50% of the signal achieved in the absence of analyte (B/B0=50%), as a percentage of the analyte concentration giving the same fall in signal” [The Immunoassay Handbook, David Wild, Stockton Press, USA, 1994].
% crossreactivity is calculated as follows from FIG. 1: […]

A short description of series [2]: HPLC and UV detection of terbinafine metabolites in the nail matrix. To be noted: HPLC with UV detection. The text has this: Thus, in relation to the cross-reactivities of the antibodies of the invention with the above metabolites (see Example 4), no detection interferences are likely to be encountered with terbinafine in nails.

Take `CN(C/C=C/C#CC(C)(C)C(=O)O)Cc1cccc2ccccc12` [Carboxy-terbinafine, (E)-2,2-dimethyl-7-[methyl(naphthalen-1-ylmethyl)amino]hept-5-en-3-ynoic acid]: in series [1], the “Inhibition (%) at terbinafine concentration (μg/ml) 0.0001” value (“Inhibition (%) … (μg/ml) 0.0001” below) came to 0.85%, the “Inhibition (%) at terbinafine concentration (μg/ml) 0.001” value (“Inhibition (%) … (μg/ml) 0.001” for short) stood at 2.11%, the “Inhibition (%) at terbinafine concentration (μg/ml) 0.01” value (“Inhibition (%) … (μg/ml) 0.01” for short) was found to be 4.30% and the “Inhibition (%) at terbinafine concentration (μg/ml) 0.1” value (“Inhibition (%) … (μg/ml) 0.1” below) is recorded as 25.8%. Also, in series [1], the “Inhibition (%) at terbinafine concentration (μg/ml) 1” value is on record as 63.8% and the “Inhibition (%) at terbinafine concentration (μg/ml) 10” value (from here on “Inhibition (%) … (μg/ml) 10”) worked out at 89.2%. Moreover, the “presence in the nail matrix” value in series [2] is “no hint for the presence”.
On to `CC(C)(C#C/C=C/CNCc1cccc2ccccc12)C(=O)O` [Desmethyl-carboxy-terbinafine, (E)-2,2-dimethyl-7-[(naphthalen-1-ylmethyl)amino]hept-5-en-3-ynoic acid], for which, in series [1], the “Inhibition (%) … (μg/ml) 0.0001” value is listed as 2.81%, the “Inhibition (%) … (μg/ml) 0.001” value is recorded as 1.38%, the “Inhibition (%) … (μg/ml) 0.01” value was found to be 3.74% and the “Inhibition (%) … (μg/ml) 0.1” value stood at 4.40%. In addition, in series [1], the “Inhibition (%) at terbinafine concentration (μg/ml) 1” value amounted to 3.85%, the “Inhibition (%) … (μg/ml) 10” value is 12.1% and the “% crossreactivity” value is given as “not detectable”.
For the molecule `CC(C)(C#C/C=C/CNCc1cccc2ccccc12)CO` [Desmethyl-hydroxy-terbinafine, (E)-2,2-dimethyl-7-[(naphthalen-1-ylmethyl)amino]hept-5-en-3-yn-1-ol], in series [1], the “Inhibition (%) … (μg/ml) 0.0001” value came to 3.60%, the “Inhibition (%) … (μg/ml) 0.001” value was 0.79%, the “Inhibition (%) … (μg/ml) 0.01” value amounted to 1.60% and the “Inhibition (%) … (μg/ml) 0.1” value turned out to be 5.30%. Besides, in series [1], the “Inhibition (%) at terbinafine concentration (μg/ml) 1” value came to 15.7%, the “Inhibition (%) … (μg/ml) 10” value is listed as 58.0% and the “% crossreactivity” value is 4.5%. The “presence in the nail matrix” value in series [2] is recorded as “no hint for the presence”.
For `CC(C)(C)C#C/C=C/CNCc1cccc2ccccc12` [Desmethyl-terbinafine ch, (E)-N-(6,6-dimethylhept-2-en-4-ynyl)-1-naphthalenemethanamine], in series [1], the “Inhibition (%) … (μg/ml) 0.0001” value is reported as −0.45%, the “Inhibition (%) … (μg/ml) 0.001” value is listed as −0.14%, the “Inhibition (%) … (μg/ml) 0.01” value is reported as 1.55% and the “Inhibition (%) … (μg/ml) 0.1” value worked out at 1.22%. Further, in series [1], the “Inhibition (%) at terbinafine concentration (μg/ml) 1” value worked out at 5.96%, the “Inhibition (%) … (μg/ml) 10” value was found to be 7.87% and the “% crossreactivity” value is on record as “not detectable”. In addition, the “presence in the nail matrix” value in series [2] is “measurable”.
As to `CN(C/C=C/C#CC(C)(C)CO)Cc1cccc2ccccc12` [Hydroxy-terbinafine, (E)-2,2-dimethyl-7-[methyl(naphthalen-1-ylmethyl)amino]hept-5-en-3-yn-1-ol], in series [1], the “Inhibition (%) … (μg/ml) 0.0001” value is 0.40%, the “Inhibition (%) … (μg/ml) 0.001” value was 0.56%, the “Inhibition (%) … (μg/ml) 0.01” value is 3.74% and the “Inhibition (%) … (μg/ml) 0.1” value turned out to be 72.5%. Also, in series [1], the “Inhibition (%) at terbinafine concentration (μg/ml) 1” value is 92.9% and the “Inhibition (%) … (μg/ml) 10” value is given as 93.0%. Further, the “presence in the nail matrix” value in series [2] is “no hint for the presence”.
`CN(C/C=C/C#CC(C)(C)C)Cc1cccc2ccccc12` [Terbinafine ch, (E)-N-(6,6-dimethylhept-2-en-4-ynyl)-N-methyl-1-naphthalene methanamine]: in series [1], the “Inhibition (%) … (μg/ml) 0.0001” value is 0.99%, the “Inhibition (%) … (μg/ml) 0.001” value is −1.92%, the “Inhibition (%) … (μg/ml) 0.01” value is recorded as 2.70% and the “Inhibition (%) … (μg/ml) 0.1” value is recorded as 31.5%. Further, in series [1], the “Inhibition (%) at terbinafine concentration (μg/ml) 1” value stood at 73.8% and the “Inhibition (%) … (μg/ml) 10” value amounted to 92.6%.
